Reference: patent US20200246347A1, “Substituted Pyrrolopyridine-Derivatives” (BAYER PHARMA AKTIENGESELLSCHAFT, priority 2017, published 2020)

Experiments:
pSer376-SLP-76 = assay: Phosphorylation assay in human cell line (Jurkat E6.1 overexpressing FLAG-tagged SLP-76, a-CD3 stimulated); assay type: cell-based; settings: 30 min at 37° C., Jurkat E6.1 cells; for % amount of pSer376-SLP-76 @ 10 μM: 10 μM compound; for % amount of pSer376-SLP-76 @ 20 μM: 20 μM compound
Procedure: Phosphorylation assays were carried out in Jurkat E6.1 cells from American Type Culture Collection (ATCC) stably overexpressing human FLAG-tagged SLP-76 (proprietary). […] Applied compounds were tested at either fixed concentration of 10 μmol/L and 20 μmol/L or in a 8 point dose response titration of increase compound concentration with 10 nmol/L. 50 nmol/L. 100 nmol/L. 500 nmol/L. 1 μmol/L. 5 μmol/L. 10 μmol/L and 20 μmol/L in triplicates. The cells were washed once in phosphate-buffered saline (pH 7.4). Cells were lysed using a lysis buffer containing 50 mmol/L Tris-Cl (pH 7.5). 150 mM NaCl. 2 mM EDTA. 1% Triton-X 100. 0.5% Na-DOC. 0.1% SDS. […] Probe antibodies used were a rabbit monoclonal antibody supernatant raised against human phospho-Ser376-SLP-76 peptide (proprietary) and for mormalization an a-alpha-Tubulin. mouse monoclonal antibody (Sigma #T9026). […] Cells with a-CD3 treatment only were used as negative control (min control. which represent the minimally possible inhibition of pSer376-SLP-76 by a test compound)
AUC values of each respective test sample were normalized using the AUC of housekeeping gene alpha-Tubulin and AUC of pSer376-SLP-76 of the min control. The percentage of the amount of pSer-SLP-76 in the treatment samples was calculated using the max control and min control values of the respective Peggy Sue™ run.

MAP4K1 = MAP4K1 (Homo sapiens, UniProt Q92918); assay: biochemical
MAP4K1, sequence (Q92918 whole entry): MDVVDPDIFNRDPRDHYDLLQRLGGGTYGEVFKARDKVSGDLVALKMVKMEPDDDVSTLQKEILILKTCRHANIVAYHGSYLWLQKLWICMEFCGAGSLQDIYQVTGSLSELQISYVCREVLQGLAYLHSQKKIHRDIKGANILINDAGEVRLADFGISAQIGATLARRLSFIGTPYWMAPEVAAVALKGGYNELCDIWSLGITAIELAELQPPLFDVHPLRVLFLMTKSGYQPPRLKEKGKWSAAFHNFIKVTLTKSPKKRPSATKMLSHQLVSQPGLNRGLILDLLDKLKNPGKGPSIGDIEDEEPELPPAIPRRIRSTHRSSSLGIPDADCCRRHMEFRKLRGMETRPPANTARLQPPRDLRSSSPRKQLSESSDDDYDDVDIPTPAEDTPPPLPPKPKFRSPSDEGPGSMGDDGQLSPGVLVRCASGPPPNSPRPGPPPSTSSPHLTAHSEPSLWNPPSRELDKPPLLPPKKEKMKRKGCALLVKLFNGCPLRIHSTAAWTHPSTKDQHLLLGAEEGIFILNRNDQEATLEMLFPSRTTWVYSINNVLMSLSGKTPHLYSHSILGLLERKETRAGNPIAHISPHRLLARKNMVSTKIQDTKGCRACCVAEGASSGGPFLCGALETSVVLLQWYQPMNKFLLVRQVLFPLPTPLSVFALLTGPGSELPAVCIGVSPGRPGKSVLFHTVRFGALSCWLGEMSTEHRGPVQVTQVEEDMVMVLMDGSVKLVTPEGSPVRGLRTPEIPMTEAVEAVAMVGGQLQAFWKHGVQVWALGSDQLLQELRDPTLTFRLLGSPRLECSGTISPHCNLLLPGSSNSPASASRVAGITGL

Structure (SMILES) | % amount of pSer376-SLP-76 @ 10 μM (pSer376-SLP-76) | % amount of pSer376-SLP-76 @ 20 μM (pSer376-SLP-76) | IC50 (MAP4K1)
O=C(NCCN1CCOCC1)Nc1ccc(Oc2ccnc3[nH]cc(C(F)(F)F)c23)cc1 [Example 1, 1-[2-(morpholin-4-yl)ethyl]-3-(4-{[3-(trifluoromethyl)-1H-pyrrolo[2,3-b]pyridin-4-yl]oxy}phenyl)urea] | 40.8% | 16.0% | –
Cc1cc(NC(=O)NCCCN2CCOCC2)ccc1Oc1ccnc2[nH]cc(C(F)(F)F)c12 [Example 4, 1-(3-methyl-4-{[3-(trifluoromethyl)-1H-pyrrolo[2,3-b]pyridin-4-yl]oxy}phenyl)-3-[3-(morpholin-4-yl)propyl]urea] | 45.6% | 18.1% | 74 nM
Cc1cc(NC(=O)NCCN2CCOCC2)ccc1Oc1ccnc2[nH]cc(C(F)(F)F)c12 [Example 5, 1-(3-methyl-4-{[3-(trifluoromethyl)-1H-pyrrolo[2,3-b]pyridin-4-yl]oxy}phenyl)-3-[2-(morpholin-4-yl)ethyl]urea] | 48.1% | 25.3% | –
N#Cc1cc(NC(=O)NCCN2CCOCC2)ccc1Oc1ccnc2[nH]cc(C(F)(F)F)c12 [Example 6, 1-(3-cyano-4-{[3-(trifluoromethyl)-1H-pyrrolo[2,3-b]pyridin-4-yl]oxy}phenyl)-3-[2-(morpholin-4-yl)ethyl]urea] | – | – | 212 nM
N#Cc1cc(NC(=O)NCCCN2CCOCC2)ccc1Oc1ccnc2[nH]cc(C(F)(F)F)c12 [Example 7, 1-(3-cyano-4-{[3-(trifluoromethyl)-1H-pyrrolo[2,3-b]pyridin-4-yl]oxy}phenyl)-3-[3-(morpholin-4-yl)propyl]urea] | – | – | 138 nM
